Reference: ChEMBL document CHEMBL5579888, “A Comparative Study on the DNA Interactions and Biological Activities of Benzophenanthridine and Protoberberine Alkaloids” (J Nat Prod, 2024)
The source made the active and inactive calls. The calls are words filed in the database; no cut-off is given here.

How the values were obtained:
[1] = test system: A-375; experiment: Induction of apoptosis in human A-375 cells assessed assessed as late apoptotic cells at 5 uM incubated for 24 hrs by Annexin V-Elab Fluor 647/propidium iodide staining based flow cytometry (reference value: 6.31 %); type: functional
[2] = test system: A-375; experiment: Induction of cell cycle arrest in human A-375 cells assessed assessed as cell accumulation at S phase at 5 uM incubated for 24 hrs by propidium iodide staining based flow cytometry (reference value: 30.05 %); type: functional
[3] = test system: Quadruplex DNA; experiment: Binding affinity to human G4-quadruplex Oxy28 DNA 5'- GGGGTTTTGGGGTTTTGGGGTTTTGGGG -3' at 10 uM by CD spectra analysis; type: nucleic-acid assay
[4] = target: Quadruplex DNA; experiment: Displacement of ThT from human G4-quadruplex Bcl2 DNA 5'- CGGGCGCGGGAGGAAGGGGGCGGGAGC-3' incubated for 0.5 hrs by SpectraMax M2 microplate reader analysis; type: nucleic-acid assay
[5] = target: dsDNA; experiment: Displacement of Hoechst 33342 from double stranded DNA ssab (unknown origin) incubated for 0.5 hrs by SpectraMax M2 microplate reader analysis; type: nucleic-acid assay
[6] = test system: A-375; experiment: Induction of cell cycle arrest in human A-375 cells assessed assessed as cell accumulation at G0/G1 phase at 5 uM incubated for 24 hrs by propidium iodide staining based flow cytometry (reference value: 54.25 %); type: functional
[7] = test system: A-375; experiment: Induction of apoptosis in human A-375 cells assessed assessed as early apoptotic cells at 5 uM incubated for 24 hrs by Annexin V-Elab Fluor 647/propidium iodide staining based flow cytometry (reference value: 1.14 %); type: functional
[8] = test system: A-375; experiment: Induction of cell cycle arrest in human A-375 cells assessed assessed as cell accumulation at G2/M phase at 5 uM incubated for 24 hrs by propidium iodide staining based flow cytometry (reference value: 15.70 %); type: functional
[9] = test system: Quadruplex DNA; experiment: Binding affinity to human G4-quadruplex Pu27 DNA 5'- TGGGGAGGGTGGGGAGGGTGGGGAAGG-3' at 20 uM by UV-Visible absorption spectroscopic analysis; type: nucleic-acid assay
[10] = test system: Quadruplex DNA; experiment: Binding affinity to human G4-quadruplex KRAS DNA 5'- AGGGCGGTGTGGGAAGAGGGAAGAGGGGGAGG-3' at 10 uM by CD spectra analysis; type: nucleic-acid assay
[11] = test system: Quadruplex DNA; experiment: Binding affinity to human G4-quadruplex c-kit2 DNA 5'- CGGGCGGGCGCGAGGGAGGGT-3' at 20 uM by UV-Visible absorption spectroscopic analysis; type: nucleic-acid assay
[12] = test system: A-375; experiment: Inhibition of DNA synthesis in human A-375 cells at 5 uM incubated for 24 hrs by Edu incorporation based flow cytometry analysis; type: functional, cell-based
[13] = test system: A-375; experiment: Induction of apoptosis in human A-375 cells assessed assessed as necrotic cells at 5 uM incubated for 24 hrs by Annexin V-Elab Fluor 647/propidium iodide staining based flow cytometry (reference value: 1.45 %); type: functional
[14] = test system: Quadruplex DNA; experiment: Binding affinity to human G4-quadruplex Bcl2 DNA 5'- CGGGCGCGGGAGGAAGGGGGCGGGAGC-3' at 20 uM by UV-Visible absorption spectroscopic analysis; type: nucleic-acid assay
[15] = test system: Quadruplex DNA; experiment: Binding affinity to human G4-quadruplex 22AG DNA 5'- AGGGTTAGGGTTAGGGTTAGGG -3' at 20 uM by UV-Visible absorption spectroscopic analysis; type: nucleic-acid assay
[16] = test system: A-375; experiment: Induction of DNA damage in human A-375 cells assessed as appearance of long DNA tails at 5 uM incubated for 24 hrs by comet assay; type: functional, cell-based
[17] = test system: A-375; experiment: Induction of apoptosis in human A-375 cells assessed assessed as viable cells at 5 uM incubated for 24 hrs by Annexin V-Elab Fluor 647/propidium iodide staining based flow cytometry (reference value: 91.1 %); type: functional; conditions: read-out: Activity
[18] = target: Quadruplex DNA; experiment: Displacement of ThT from human G4-quadruplex Pu27 DNA 5'- TGGGGAGGGTGGGGAGGGTGGGGAAGG-3' incubated for 0.5 hrs by SpectraMax M2 microplate reader analysis; type: nucleic-acid assay
[19] = test system: A-375; experiment: Inhibition of RNA synthesis in human A-375 cells at 5 uM incubated for 24 hrs by EU incorporation based flow cytometry analysis; type: functional, cell-based
[20] = test system: Calf thymus DNA; experiment: Displacement of Hoechst 33342 from calf thymus DNA incubated for 0.5 hrs by SpectraMax M2 microplate reader analysis; type: nucleic-acid assay, Bos taurus
[21] = test system: dsDNA; experiment: Binding affinity to double stranded DNA ssab (unknown origin) at 20 uM by UV-Visible absorption spectroscopic analysis; type: nucleic-acid assay
[22] = test system: Quadruplex DNA; experiment: Binding affinity to human G4-quadruplex VEGF DNA 5'- GGGCGGGCCGGGGGCGGG-3' at 20 uM by UV-Visible absorption spectroscopic analysis; type: nucleic-acid assay
[23] = test system: Quadruplex DNA; experiment: Binding affinity to human G4-quadruplex KRAS DNA 5'- AGGGCGGTGTGGGAAGAGGGAAGAGGGGGAGG-3' at 20 uM by UV-Visible absorption spectroscopic analysis; type: nucleic-acid assay
[24] = target: Quadruplex DNA; experiment: Displacement of ThT from human G4-quadruplex c-kit2 DNA 5'- CGGGCGGGCGCGAGGGAGGGT-3' incubated for 0.5 hrs by SpectraMax M2 microplate reader analysis; type: nucleic-acid assay
[25] = test system: Quadruplex DNA; experiment: Binding affinity to human G4-quadruplex Oxy28 DNA 5'- GGGGTTTTGGGGTTTTGGGGTTTTGGGG -3' at 20 uM by UV-Visible absorption spectroscopic analysis; type: nucleic-acid assay
[26] = target: Quadruplex DNA; experiment: Displacement of ThT from human G4-quadruplex KRAS DNA 5'- AGGGCGGTGTGGGAAGAGGGAAGAGGGGGAGG-3' incubated for 0.5 hrs by SpectraMax M2 microplate reader analysis; type: nucleic-acid assay
[27] = target: Salmon testes DNA; experiment: Displacement of Hoechst 33342 from salmon sperm DNA incubated for 0.5 hrs by SpectraMax M2 microplate reader analysis; type: nucleic-acid assay, Salmo salar
[28] = target: Quadruplex DNA; experiment: Displacement of ThT from human G4-quadruplex 22AG DNA 5'- AGGGTTAGGGTTAGGGTTAGGG -3' incubated for 0.5 hrs by SpectraMax M2 microplate reader analysis; type: nucleic-acid assay
[29] = target: Quadruplex DNA; experiment: Displacement of ThT from human G4-quadruplex Oxy28 DNA 5'- GGGGTTTTGGGGTTTTGGGGTTTTGGGG -3' incubated for 0.5 hrs by SpectraMax M2 microplate reader analysis; type: nucleic-acid assay
[30] = target: Quadruplex DNA; experiment: Displacement of ThT from human G4-quadruplex VEGF DNA 5'- GGGCGGGCCGGGGGCGGG-3' incubated for 0.5 hrs by SpectraMax M2 microplate reader analysis; type: nucleic-acid assay

- Activity [3]: inactive
- Kd [4]: 1520 nM
- DC50 [5]: 2970 nM
- Activity [9]: Active
- Activity [10]: inactive
- Activity [11]: Active
- Activity [14]: Active
- Activity [15]: Active
- DC50 [18]: 990 nM
- DC50 [20]: 14400 nM
- Activity [21]: Active
- Activity [22]: Active
- Activity [23]: Active
- DC50 [24]: 1050 nM
- Activity [25]: Active
- DC50 [26]: 9080 nM
- DC50 [27]: 10800 nM
- DC50 [28]: 15500 nM
- DC50 [29]: 1980 nM
- DC50 [30]: 590 nM
SMILES: COc1cc2c[n+](C)c3c4cc5c(cc4ccc3c2cc1OC)OCO5 [NITIDINE]
- Activity [1]: 60.4%
- Activity [2]: 30.21%
- Activity [6]: 40.5%
- Activity [7]: 2.03%
- Activity [8]: 29.3%
- inhibition [12]: Active
- Activity [13]: 6.7%
- Activity [16]: Active
- viability at 5 µM [17]: 30.8%
- inhibition [19]: Active
